Assay results: patent US20240246964A1 (Arbutus Biopharma Corporation, priority 2021, published 2024)

Experiments:
[1] = target: PD-L1 His protein / PD-1 Fc protein (Homo sapiens (Human), UniProt Q9NZQ7); assay: HTRF Assay (PD-1/PD-L1 interaction); assay type: binding; details: PD-L1 His 6 nM, PD-1 Fc 6 nM
[2] = target: human PD-L1 (Homo sapiens (Human), UniProt Q9NZQ7); assay: T cell activation luciferase reporter cell culture system (T Cell Activation Assay); assay type: cell-based; details: luciferase reporter assay; PD-L1 aAPC/CHO-K1 cells with PD-1 effector Jurkat T cells
human PD-L1, sequence (Q9NZQ7 19-290): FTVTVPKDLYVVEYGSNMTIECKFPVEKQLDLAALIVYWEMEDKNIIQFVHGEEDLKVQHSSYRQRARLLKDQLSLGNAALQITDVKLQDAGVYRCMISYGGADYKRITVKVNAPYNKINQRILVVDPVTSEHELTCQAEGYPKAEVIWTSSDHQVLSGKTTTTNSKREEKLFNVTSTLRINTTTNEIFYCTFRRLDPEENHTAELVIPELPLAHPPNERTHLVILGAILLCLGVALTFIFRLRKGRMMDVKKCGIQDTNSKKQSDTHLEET

PD-L1 His protein / PD-1 Fc protein, sequence (Q9NZQ7 19-238): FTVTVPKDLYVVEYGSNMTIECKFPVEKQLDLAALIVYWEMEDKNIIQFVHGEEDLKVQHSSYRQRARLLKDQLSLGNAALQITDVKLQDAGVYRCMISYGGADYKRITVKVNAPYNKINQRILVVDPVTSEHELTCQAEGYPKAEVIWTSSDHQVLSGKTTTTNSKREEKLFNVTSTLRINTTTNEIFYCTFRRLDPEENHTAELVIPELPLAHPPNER

Structure (SMILES)	IC50 [1] [nM]	EC50 [2] [nM]
COc1cc(-c2nccc(-c3cccc(-c4ccc(CNC[C@H]5CNC(=O)C5)c(OC)n4)c3Cl)c2Cl)ccc1CNC[C@H]1CNC(=O)C1 [Example 405, (S)-4-((((6-(2-Chloro-3-(3-chloro-2-(3-methoxy-4-(((((S)-5-oxopyrrolidin-3-yl)methyl)amino)methyl)phenyl)pyridin-4-yl)phenyl)-2-methoxypyridin-3-yl)methyl)amino)methyl)pyrrolidin-2-one]	0.237	24
COCC(=O)N1CCC(NCc2ccc(-c3nccc(-c4cccc(-c5ccc(CNC6CCN(C(C)=O)CC6)c(OC)n5)c4Cl)c3Cl)cc2OC)CC1 [Example 413, 1-(4-((4-(4-(3-(5-(((1-Acetylpiperidin-4-yl)amino)methyl)-6-methoxypyridin-2-yl)-2-chlorophenyl)-3-chloropyridin-2-yl)-2-methoxybenzyl)amino)piperidin-1-yl)-2-methoxyethan-1-one]	1.45	16.1
COc1cc(-c2nccc(-c3cccc(-c4ccc(CNC[C@@H]5CCC(=O)N5)c(OC)n4)c3Cl)c2C)ccc1CNC[C@@H]1CCC(=O)N1 [Example 414, (S)-5-((((6-(2-Chloro-3-(2-(3-methoxy-4-(((((S)-5-oxopyrrolidin-2-yl)methyl)amino)methyl)phenyl)-3-methylpyridin-4-yl)phenyl)-2-methoxypyridin-3-yl)methyl)amino)methyl)pyrrolidin-2-one]	1.58	29.4
COc1cc(-c2nccc(-c3cccc(-c4ccc(CN5CC6(CNC(=O)C6)C5)c(OC)n4)c3C)c2C)ccc1CN1CC2(CNC(=O)C2)C1 [Example 415, 2-((2-methoxy-6-(3-(2-(3-methoxy-4-((7-oxo-2,6-diazaspiro[3.4]octan-2-yl)methyl)phenyl)-3-methylpyridin-4-yl)-2-methylphenyl)pyridin-3-yl)methyl)-2,6-diazaspiro[3.4]octan-7-one]	0.25	5100
COc1cc(-c2nccc(-c3cccc(-c4ccc(CN5CC6(C5)CN(C(C)=O)C6)c(OC)n4)c3C)c2C)ccc1CN1CC2(C1)CN(C(C)=O)C2 [Example 416, 1-(6-((6-(3-(2-(4-((6-Acetyl-2,6-diazaspiro[3.3]heptan-2-yl)methyl)-3-methoxyphenyl)-3-methylpyridin-4-yl)-2-methylphenyl)-2-methoxypyridin-3-yl)methyl)-2,6-diazaspiro[3.3]heptan-2-yl)ethan-1-one]	6.6	≥ 10000
COc1cc(-c2nccc(-c3cccc(-c4ccc(CNC5CCN(C(C)=O)CC5)c(OC)n4)c3Cl)c2Cl)ccc1CNC1CCNCC1 [Example 417, 1-(4-(((6-(2-chloro-3-(3-chloro-2-(3-methoxy-4-((piperidin-4-ylamino)methyl)phenyl)pyridin-4-yl)phenyl)-2-methoxypyridin-3-yl)methyl)amino)piperidin-1-yl)ethan-1-one]	3.67	58.3
COc1cc(-c2nccc(-c3cccc(-c4ccc(CNC5CCN(C(=O)c6ccco6)CC5)c(OC)n4)c3Cl)c2Cl)ccc1CNC1CCN(C(=O)c2ccco2)CC1 [Example 421, (4-(((6-(2-Chloro-3-(3-chloro-2-(4-(((1-(furan-2-carbonyl)piperidin-4-yl)amino)methyl)-3-methoxyphenyl)pyridin-4-yl)phenyl)-2-methoxypyridin-3-yl)methyl)amino)piperidin-1-yl)(furan-2-yl)methanone]	1.86	47.7
COc1cc(-c2nccc(-c3cccc(-c4ccc(CNC5CCN(C(=O)c6ccccc6)CC5)c(OC)n4)c3Cl)c2Cl)ccc1CNC1CCN(C(=O)c2ccccc2)CC1 [Example 422, (4-(((6-(3-(2-(4-(((1-Benzoylpiperidin-4-yl)amino)methyl)-3-methoxyphenyl)-3-chloropyridin-4-yl)-2-chlorophenyl)-2-methoxypyridin-3-yl)methyl)amino)piperidin-1-yl)(phenyl)methanone]	0.9	75.5
COc1cc(-c2nccc(-c3cccc(-c4ccc(CNC5CCN(c6ccccc6)CC5)c(OC)n4)c3Cl)c2Cl)ccc1CNC1CCN(c2ccccc2)CC1 [Example 423, N-((6-(2-Chloro-3-(3-chloro-2-(3-methoxy-4-(((1-phenylpiperidin-4-yl)amino)methyl)phenyl)pyridin-4-yl)phenyl)-2-methoxypyridin-3-yl)methyl)-1-phenylpiperidin-4-amine]	7.78	354
COc1cc(-c2nccc(-c3cccc(-c4ccc(CNC5CCN(c6ccncc6)CC5)c(OC)n4)c3Cl)c2Cl)ccc1CNC1CCN(c2ccncc2)CC1 [Example 424, N-((6-(2-Chloro-3-(3-chloro-2-(3-methoxy-4-(((1-(pyridin-4-yl)piperidin-4-yl)amino)methyl)phenyl)pyridin-4-yl)phenyl)-2-methoxypyridin-3-yl)methyl)-1-(pyridin-4-yl)piperidin-4-amine]	3.59	86.6
COc1cc(-c2nccc(-c3cccc(-c4ccc(CNC5CCOCC5)c(OC)n4)c3C)c2C)ccc1CNC1CCOCC1 [Example 425, N-(2-Methoxy-4-(4-(3-(6-methoxy-5-(((tetrahydro-2H-pyran-4-yl)amino)methyl)pyridin-2-yl)-2-methylphenyl)-3-methylpyridin-2-yl)benzyl)tetrahydro-2H-pyran-4-amine]	7.08	841
COc1cc(-c2nccc(-c3cccc(-c4ccc(CNC5CCOCC5)c(OC)n4)c3C)c2Cl)ccc1CNC1CCOCC1 [Example 426, N-((6-(3-(3-chloro-2-(3-methoxy-4-(((tetrahydro-2H-pyran-4-yl)amino)methyl)phenyl)pyridin-4-yl)-2-methylphenyl)-2-methoxypyridin-3-yl)methyl)tetrahydro-2H-pyran-4-amine]	4.23	98.8
COc1cc(-c2nccc(-c3cccc(-c4ccc(CNC5CCN(C(C)=O)CC5)c(OC)n4)c3Cl)c2Cl)ccc1CN(C)C1CCOCC1 [Example 427, 1-(4-(((6-(2-chloro-3-(3-chloro-2-(3-methoxy-4-((methyl(tetrahydro-2H-pyran-4-yl)amino)methyl)phenyl)pyridin-4-yl)phenyl)-2-methoxypyridin-3-yl)methyl)amino)piperidin-1-yl)ethan-1-one]	8.8	25
COc1cc(-c2nccc(-c3cccc(-c4ccc(CN5CC6(CNC(=O)C6)C5)c(OC)n4)c3F)c2Cl)ccc1CN1CC2(CNC(=O)C2)C1 [Example 438, 2-(4-(3-chloro-4-(2-fluoro-3-(6-methoxy-5-((7-oxo-2,6-diazaspiro[3.4]octan-2-yl)methyl)pyridin-2-yl)phenyl)pyridin-2-yl)-2-methoxybenzyl)-2,6-diazaspiro[3.4]octan-7-one]	3.1	58.7
COc1cc(-c2nccc(-c3cccc(-c4ccc(CNC5CCN(C(C)=O)CC5)c(OC)n4)c3F)c2Cl)ccc1CNC1CCN(C(C)=O)CC1 [Example 439, 1-(4-(((6-(3-(2-(4-(((1-Acetylpiperidin-4-yl)amino)methyl)-3-methoxyphenyl)-3-chloropyridin-4-yl)-2-fluorophenyl)-2-methoxypyridin-3-yl)methyl)amino)piperidin-1-yl)ethan-1-one]	2.74	121
